Among the test systems are NCI-H460 lung; 786-0 renal; K-562 leukemia; PC-3 prostate; UACC-62 melanoma; LOX IMVI melanoma; HS 578T breast; MDA-MB-435; U251 CNS; M14 melanoma.
Common to all, as to assay: NCI-60 cell line screen, 48 h

Structures are written as SMILES. Values joined by “and” are separate entries in the source; they are usually repeats but may differ in a detail not shown here. Equal values may be shown once.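 Each compound was tested at five concentrations against cells in 96-well plates for 48 hours. GI50 marks 50% less growth. At the TGI there is no net growth.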 Some results are limits rather than exact numbers.

Take `O=C(Nc1cccc(-n2cc(-c3ccncc3)c(-c3cc(O)cc(Cl)c3)n2)c1)c1cc(C(F)(F)F)cc(C(F)(F)F)c1`: the GI50 in the experiment on NCI-H460 lung is 3.04 µM; with 786-0 renal, 3.12 µM; in the experiment on K-562 leukemia it was 3.24 µM; in the experiment with PC-3 prostate, 2.28 µM; in the experiment on UACC-62 melanoma it was 3.79 µM; in the experiment on LOX IMVI melanoma it was 3.29 µM. Further, the GI50 is 6.38 µM in the experiment with HS 578T breast, 3.16 µM with MDA-MB-435, 3.23 µM in the experiment on U251 CNS and 3.01 µM with M14 melanoma. Also, the TGI with NCI-H460 lung is > 100 µM; in the experiment with 786-0 renal, 21.1 µM; with K-562 leukemia, > 100 µM; in the experiment on PC-3 prostate, 22.5 µM; with UACC-62 melanoma it was 22.4 µM; in the experiment on LOX IMVI melanoma it was 13.7 µM. For the same compound, the TGI in the experiment on HS 578T breast was > 100 µM; in the experiment with MDA-MB-435 it was > 100 µM; with U251 CNS it was 24.4 µM; in the experiment on M14 melanoma, > 100 µM.
`Cc1cc(N=Nc2ccccc2C)ccc1N`: the GI50 in the experiment on NCI-H460 lung is 12.3 µM; with 786-0 renal, 2.96 µM; in the experiment with K-562 leukemia it was 12.8 µM; in the experiment on PC-3 prostate, 5.99 µM; in the experiment with LOX IMVI melanoma it was 13.9 µM; with HS 578T breast it was 13.3 µM. The GI50 in the experiment with MDA-MB-435 is 12.7 µM; in the experiment with M14 melanoma, 16.1 µM. Further, the TGI with NCI-H460 lung was 17.7 µM and 31.2 µM; with 786-0 renal, 27 µM and 15.8 µM; in the experiment on K-562 leukemia, 32.8 µM and > 100 µM; in the experiment on PC-3 prostate, 26.8 µM and 91.5 µM; in the experiment with UACC-62 melanoma, 25.1 µM and 30.6 µM; with LOX IMVI melanoma, 25 µM and 28.9 µM. For the same compound, the TGI with HS 578T breast is 32.1 µM and 45.9 µM; in the experiment on MDA-MB-435, 49.3 µM and 46 µM; in the experiment on U251 CNS, 35.7 µM and 30.4 µM; in the experiment with M14 melanoma it was 24.9 µM and 38.7 µM.
Consider `C(=N/N(Cc1ccccc1)Cc1ccccc1)/c1ccccc1`, for which the GI50 with NCI-H460 lung was > 100 µM; with 786-0 renal, > 100 µM; in the experiment on PC-3 prostate it was > 100 µM; with UACC-62 melanoma, 75 µM; in the experiment with LOX IMVI melanoma, > 100 µM; in the experiment on HS 578T breast, 51.1 µM. Also, the GI50 in the experiment with MDA-MB-435 was 77.3 µM; with U251 CNS, > 100 µM; in the experiment on M14 melanoma, 90.1 µM. For the same compound, the TGI in the experiment with NCI-H460 lung, with 786-0 renal, in the experiment on PC-3 prostate, with UACC-62 melanoma, with LOX IMVI melanoma and in the experiment on HS 578T breast was > 100 µM in each case. Moreover, the TGI in the experiment with MDA-MB-435, in the experiment on U251 CNS and in the experiment with M14 melanoma was > 100 µM in each case.
`CC1OC(OC2C(O)CC(OC3C(O)CC(OC4CCC5(C)C(CCC6C5CC(O)C5(C)C(C7=CC(=O)OC7)CCC65O)C4)OC3C)OC2C)CC(O)C1O` (centres undefined): the GI50 in the experiment with NCI-H460 lung is 0.0305 µM; with 786-0 renal, 0.041 µM; in the experiment on K-562 leukemia it was 0.0319 µM; in the experiment with PC-3 prostate, 0.0543 µM; with UACC-62 melanoma, 0.157 µM; with LOX IMVI melanoma it was 0.0428 µM. The GI50 in the experiment on HS 578T breast is 0.042 µM; in the experiment with MDA-MB-435 it was 0.134 µM; in the experiment with U251 CNS, 0.0514 µM; in the experiment with M14 melanoma, 0.176 µM. Moreover, the TGI with NCI-H460 lung came to 0.088 µM; in the experiment on 786-0 renal it was 0.162 µM; in the experiment with K-562 leukemia, 0.122 µM; in the experiment on PC-3 prostate it was 0.538 µM; in the experiment on UACC-62 melanoma, 0.333 µM; in the experiment with LOX IMVI melanoma, 0.164 µM. For the same compound, the TGI in the experiment with HS 578T breast turned out to be 2.3 µM; in the experiment on MDA-MB-435, 0.318 µM; with U251 CNS, 0.165 µM; with M14 melanoma, 0.349 µM.
Turning to `COC(=O)c1cncc(/C=C/c2c(C)cc(O)cc2C)c1`, the GI50 in the experiment with NCI-H460 lung was 8.95 µM; in the experiment on 786-0 renal, 9.42 µM; with K-562 leukemia it was 2.32 µM; with PC-3 prostate it was 12.2 µM; in the experiment on UACC-62 melanoma, 7.71 µM; in the experiment with LOX IMVI melanoma, 7.41 µM. The GI50 in the experiment on HS 578T breast was 6.91 µM; in the experiment on MDA-MB-435 it was 3.42 µM; in the experiment with U251 CNS, > 16.7 µM; in the experiment with M14 melanoma it was 8.69 µM. Further, the TGI in the experiment with NCI-H460 lung is > 25 µM; in the experiment on 786-0 renal it was > 25 µM; in the experiment on K-562 leukemia, > 19 µM; in the experiment on PC-3 prostate it was > 25 µM; in the experiment with UACC-62 melanoma, > 25 µM; in the experiment with LOX IMVI melanoma, > 18 µM. Besides, the TGI with HS 578T breast was > 25 µM; in the experiment on MDA-MB-435, 11.7 µM; in the experiment with U251 CNS, > 25 µM; in the experiment with M14 melanoma, 24.6 µM.
For the compound `OC(C#Cc1ccccc1)(c1ccccc1)c1ccccc1`, the TGI was 50.6 µM with NCI-H460 lung; > 100 µM in the experiment with 786-0 renal; > 100 µM in the experiment with K-562 leukemia; > 100 µM with PC-3 prostate; > 100 µM in the experiment on UACC-62 melanoma; 38 µM with LOX IMVI melanoma. For the same compound, the TGI was > 100 µM in the experiment with HS 578T breast, 56.3 µM in the experiment on MDA-MB-435, 83.4 µM with U251 CNS and > 100 µM in the experiment with M14 melanoma.
As for `C/C(=C\c1cnc(C)s1)[C@@H]1C[C@@H]2O[C@@H]2CCC[C@H](C)[C@H](O)[C@@H](C)C(=O)C(C)(C)[C@@H](O)CC(=O)O1`, the GI50 in the experiment with NCI-H460 lung, with 786-0 renal, in the experiment on K-562 leukemia, in the experiment on PC-3 prostate, in the experiment with UACC-62 melanoma and in the experiment on LOX IMVI melanoma was < 0.01 µM throughout. Moreover, the GI50 is 0.0117 µM with HS 578T breast and < 0.01 µM in the experiment on U251 CNS. The TGI in the experiment with NCI-H460 lung, with 786-0 renal, in the experiment with K-562 leukemia, in the experiment on PC-3 prostate, with UACC-62 melanoma and in the experiment with LOX IMVI melanoma was > 100 µM in each case. The TGI with HS 578T breast and in the experiment on U251 CNS was > 100 µM in each case.
Take `COc1ncnc(NS(=O)(=O)c2ccc(N=C3C(=O)N(CN4CCN(c5c(F)cc6c(=O)c(C(=O)O)cn(C7CC7)c6c5OC)CC4C)c4ccc(Br)cc43)cc2)c1OC` (centres undefined): the GI50 is 3.99 µM in the experiment with NCI-H460 lung; 38.8 µM in the experiment with 786-0 renal; 1.69 µM in the experiment on K-562 leukemia; 6.76 µM in the experiment on PC-3 prostate; 2.61 µM in the experiment with UACC-62 melanoma; 1.22 µM in the experiment with LOX IMVI melanoma. The GI50 with HS 578T breast is 12.1 µM; in the experiment on MDA-MB-435, 7.07 µM; with U251 CNS, 19.7 µM; with M14 melanoma it was 15.3 µM. Further, the TGI in the experiment with NCI-H460 lung was 19.5 µM; with 786-0 renal it was > 50 µM; with K-562 leukemia, > 50 µM; in the experiment with PC-3 prostate it was 29.4 µM; in the experiment on UACC-62 melanoma, 11.3 µM; in the experiment on LOX IMVI melanoma, 31.4 µM. Besides, the TGI in the experiment with HS 578T breast is > 50 µM; in the experiment on MDA-MB-435, 33.2 µM; with U251 CNS, > 50 µM; in the experiment with M14 melanoma, > 50 µM.
With `O=C(CCCCCCN1CC(=O)N2[C@@H](c3ccc(Cl)c(Cl)c3)c3[nH]c4ccccc4c3C[C@H]2C1=O)NO`, the GI50 was 2.77 µM with NCI-H460 lung; 4.63 µM in the experiment on 786-0 renal; 1.54 µM in the experiment on K-562 leukemia; 2.39 µM in the experiment with PC-3 prostate; 1.66 µM with UACC-62 melanoma; 3.52 µM with HS 578T breast. The values for the GI50 with MDA-MB-435, with U251 CNS and in the experiment with M14 melanoma were 3.13 µM, 2.78 µM and 4.22 µM, respectively. Moreover, the TGI with NCI-H460 lung is 9.15 µM; in the experiment on 786-0 renal it was 9.39 µM; in the experiment on K-562 leukemia, 21.4 µM; with PC-3 prostate it was 10.7 µM; in the experiment with UACC-62 melanoma, 7.07 µM; with HS 578T breast it was 15.6 µM. For the same compound, the TGI in the experiment on MDA-MB-435 was found to be 8.06 µM; with U251 CNS it was 8.25 µM; in the experiment with M14 melanoma, 14.5 µM.
Consider `C#CCNC(=O)[C@H](CC)[C@H]1CC[C@H](C)[C@H]([C@@H](C)[C@H](O)[C@H](C)C(=O)[C@H](CC)C2O[C@]3(C=CC(=O)[C@]4(CC[C@@](C)([C@H]5CC[C@](O)(CC)[C@H](C)O5)O4)O3)[C@H](C)C[C@@H]2C)O1` (some centres undefined), for which the GI50 in the experiment with NCI-H460 lung was 2.55 µM; in the experiment on 786-0 renal it was 2.67 µM; with PC-3 prostate, 2 µM; in the experiment with UACC-62 melanoma, 1.68 µM; in the experiment with LOX IMVI melanoma, 2.06 µM; with HS 578T breast, 2.06 µM. Further, the GI50 with U251 CNS was 1.88 µM; in the experiment with M14 melanoma, 1.86 µM. Besides, the TGI in the experiment with NCI-H460 lung turned out to be 6.94 µM; with 786-0 renal, 8.19 µM; with PC-3 prostate it was 8.78 µM; in the experiment on UACC-62 melanoma it was 4.28 µM; with LOX IMVI melanoma, 4.83 µM; in the experiment on HS 578T breast, 6.71 µM. Further, the TGI with U251 CNS was 3.93 µM; with M14 melanoma, 4.57 µM.
On to `COc1ccc(NC(=O)C2CCC(CNS(=O)(=O)c3ccccc3)CC2)cc1OC` (centres undefined), for which the GI50 is > 100 µM in the experiment with NCI-H460 lung; > 100 µM in the experiment on 786-0 renal; > 100 µM in the experiment on PC-3 prostate; 54.6 µM in the experiment with UACC-62 melanoma; > 100 µM in the experiment with LOX IMVI melanoma; 76.5 µM in the experiment on HS 578T breast. Moreover, the GI50 in the experiment with MDA-MB-435 was > 100 µM; in the experiment with U251 CNS, 54 µM; with M14 melanoma, > 100 µM. Further, the TGI in the experiment on NCI-H460 lung, in the experiment with 786-0 renal, in the experiment on PC-3 prostate, in the experiment on UACC-62 melanoma, with LOX IMVI melanoma and in the experiment with HS 578T breast was > 100 µM in each case. The TGI in the experiment with MDA-MB-435, in the experiment on U251 CNS and with M14 melanoma was > 100 µM in each case.
